According to publication PMC7139549, “TLD1433 Photosensitizer Inhibits Conjunctival Melanoma Cells in Zebrafish Ectopic and Orthotopic Tumour Models” (Cancers, 2020):

System: CRMM1 cells injected into the Duct of Cuvier of zebrafish embryos
Assay: Zebrafish ectopic CM tumour model, CRMM1
Type: in vivo, Zebrafish (Danio rerio)
Conditions: for PI (Fluorescence Intensity) / PI (Tumour Area) / Relative Tumour Burden as Measured by Fluorescence Intensity / Tumour Area: CRMM1, Ectopic Model; for PI (Fluorescence Intensity) / PI (Tumour Area): 0 vs 114 J.cm^−2
Protocol: The zebrafish ectopic conjunctival melanoma tumour model has been described previously. In this model, around 200 fluorescent CM cells are injected into the Duct of Cuvier at 2 dpf, and then disseminate through the blood circulation and grow in the head and tail. To establish the orthotopic tumour model, around 100 red, (td)Tomato fluorescent CRMM1 or CRMM2 cells were injected RO at 2 dpf into tg(Fli:GFP/Casper), endothelial reporter transgenic zebrafish with green fluorescent vasculature and examined by fluorescent microscopy at day 1 and 4 after engraftment (Figure 6A). Tumour expansion at the injection site was measured as fluorescence intensity and tumour area.
For cancer cell injection, two days post-fertilization (dpf), dechorionated zebrafish embryos were anaesthetized with 0.003% tricaine (Sigma) and plated on a 10 cm Petri dish covered with 1.5% of solidified agarose. CRMM1 and CRMM2 cells were suspended in PBS containing 2% polyvinylpyrrolidone (PVP; Sigma-Aldrich) with a concentration of 50,000 cells/µL and loaded into borosilicate glass capillary needles (1 mm O.D. × 0.78 mm I.D.; Harvard Apparatus). In the ectopic model, 200 (td)Tomato fluorescent CM cells were injected into the Duct of Cuvier or at 2 dpf, which led to dissemination through the blood circulation and outgrowth in the head and tail. In orthotopic tumour model, 100 (td)Tomato fluorescent CRMM1 or CRMM2 cells were injected RO in 2 dpf embryos using a Pneumatic Picopump and a manipulator (WPI). After injection, the embryos were incubated in a 34 °C incubator. Images were acquired at 1-, 2- and 4-days post injection (dpi) with a Leica M165 FC stereo fluorescence microscope. Tumor growth was quantified by calculating the total fluorescence intensity and area with the ZF4 pixel counting program (Leiden). Each experiment was performed at least 3 times with a group size of >30 embryos.
Fluorescent CRMM1 and CRMM2 cells were injected at 2 dpf into the Duct of Cuvier (ectopic model) and behind the eye (orthotopic model) and TLD1433 was delivered by WA, IV and RO administration with or without a light treatment as described in 4.8. For the WA administration, the 4.6 nM TLD1433 solution was added to the tumour cells injected zebrafish at 2.5, 3.5, 4.5, 5.5 dpf and maintained for 12 h. At 3, 4, 5, 6 dpf, the fish water was refreshed, and after 1 h, embryos were exposed to green light for 90 min (21 mW/cm^2, 114 J/cm^2, 520 nm). For the IV and RO administration, 1 nL of 2.3 mM TLD1433 solution was injected via the dorsal vein or the RO site at 3, 4, 5, 6 dpf. After 1 h interval, the embryos were exposed to green light for 90 min (21 mW/cm^2, 114 J/cm^2, 520 nm). After treatment, the embryos images were acquired with a Leica M165 FC stereo fluorescence microscope. Tumor growth was quantified by calculating the total fluorescence intensity and area with the ZF4 pixel counting program (Leiden). Each experiment was performed at least 3 times with a group size of >30 embryos.

[1] = Intravenous (1 nL of 2.3 mM), Light Dose 0 J.cm^−2, vs control dark group (100%)
[2] = Intravenous (1 nL of 2.3 mM), Light Dose 114 J.cm^−2, vs control dark group (100%)
[3] = Water (4.6 nM), Light dose 0 J.cm^−2, vs control dark group (100%)
[4] = Water (4.6 nM), Light dose 114 J.cm^−2, vs control dark group (100%)
[5] = CRMM1, ectopic model, IV 2.3 mM, light 114 J.cm^−2
[6] = CRMM1, ectopic model, RO 2.3 mM, green light 114 J.cm^−2

Cc1ccnc(-c2cc(C)ccn2)c1.Cc1ccnc(-c2cc(C)ccn2)c1.[Cl-].[Cl-].[Ru+2].c1csc(-c2ccc(-c3ccc(-c4nc5c6cccnc6c6ncccc6c5[nH]4)s3)s2)c1 [TLD1433]
PI (Fluorescence Intensity) (Intravenous (1 nL of 2.3 mM)): 1.6 | PI (Tumour Area) (Intravenous (1 nL of 2.3 mM)): 2.2 | Relative Tumour Burden as Measured by Fluorescence Intensity [1]: 94% | Tumour Area [1]: 102% | Relative Tumour Burden as Measured by Fluorescence Intensity [2]: 59% | Tumour Area [2]: 46% | PI (Tumour Area) (Retro orbital (1 nL of 2.3 mM)): 2.4 | Tumour Area (Retro orbital (1 nL of 2.3 mM), Light dose 0 J.cm^−2, vs control dark group (100%)): 85% | Tumour Area (Retro orbital (1 nL of 2.3 mM), Light dose 114 J.cm^−2, vs control dark group (100%)): 36% | PI (Fluorescence Intensity) (Retro-orbital (1 nL of 2.3 mM)): 1.6 | Relative Tumour Burden as Measured by Fluorescence Intensity (Retro-orbital (1 nL of 2.3 mM), Light Dose 0 J.cm^−2, vs control dark group (100%)): 85% | Relative Tumour Burden as Measured by Fluorescence Intensity (Retro-orbital (1 nL of 2.3 mM), Light Dose 114 J.cm^−2, vs control dark group (100%)): 53% | PI (Fluorescence Intensity) (Water (4.6 nM)): 1.0 | PI (Tumour Area) (Water (4.6 nM)): 1.0 | Relative Tumour Burden as Measured by Fluorescence Intensity [3]: 91% | Tumour Area [3]: 103% | Relative Tumour Burden as Measured by Fluorescence Intensity [4]: 89% | Tumour Area [4]: 99% | inhibition of tumour area [5]: 54% | inhibition of tumour fluorescence intensity [5]: 41% | diminished fluorescence intensity [6]: 47% | diminished tumour area [6]: 64% | effect on tumour burden (in words) (CRMM1, ectopic model, WA at the MTD (4.6 nM), light 114 J.cm^−2): did not inhibit tumour burden
